In patent US7517857B2, “Immune-modulating peptide” (POSCO, priority 2002, dated 2009):
Where a SMILES comes first, the peptide text is derived from it. [ ]: non-standard residue; d: D form.

Legend:
FPRL1 [1] = biological target: T1, FPRL1 (Homo sapiens, UniProt P25090); experiment: [Ca2+]i increase in FPRL1-expressing RBL-2H3 cells (fura-2); format: cell-based
T1 construct: expressed in transfected cells; host or cells: RBL-2H3 (rat basophilic leukemia) cells, G418-selected
T1 sequence (P25090 1-351): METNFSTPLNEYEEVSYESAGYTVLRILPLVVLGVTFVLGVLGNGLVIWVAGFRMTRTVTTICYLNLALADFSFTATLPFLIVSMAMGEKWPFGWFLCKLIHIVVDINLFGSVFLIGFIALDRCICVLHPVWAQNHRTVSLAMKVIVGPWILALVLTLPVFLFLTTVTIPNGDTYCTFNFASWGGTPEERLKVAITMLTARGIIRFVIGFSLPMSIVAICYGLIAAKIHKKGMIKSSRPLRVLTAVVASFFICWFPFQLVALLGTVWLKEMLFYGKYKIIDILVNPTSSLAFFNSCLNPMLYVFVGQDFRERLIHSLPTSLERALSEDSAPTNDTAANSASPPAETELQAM

FPRL1 [2] = biological target: T1, FPRL1; experiment: Akt phosphorylation in FPRL1-expressing RBL-2H3 cells (immunoblot); format: cell-based; conditions: 10 μM peptides 5 min (WKYMVm time course 1 μM)
Procedure: It is well known that activation of chemoattractant receptors induces Akt activation via PI3K (19). Stimulation of cells with the peptides, electrophoresis and immunoblot analysis were performed according to the same method as in Example 5.
FPR- or FPRL1-expressing RBL-2H3 cells were stimulated with 1 μM WKYMVm for various periods of time (FIG. 4A). Two cells were preincubated with a vehicle or 100 ng/ml of PTX (24 hr), 50 μM of LY294002 (15 min), 5 μM of GFX (15 min), 10 μM BAPTA/AM (60min), or 50 μM PD98059 (60 min) prior to treatment with 1 μM of WKYMVm (FIG. 4B). FPR- and FPRL1-expressing RBL2H3 cells were stimulated with 10 μM of WKYMVm and the present peptides for 2 min or 5 min, respectively (FIG. 4C). Each sample (30 μg of protein) was subjected to 10% SDS-PAGE and phosphorylated Akt was determined by immunoblot analysis with an anti-phospho-Akt antibody. A western blot analysis with an anti-Akt antibody was performed to confirm that the same amounts of samples were used for the experiments. The results are shown FIGS. 4A to 4C. Results of FIGS. 4A to 4C are the representative of 3 independent experiments.

CT26, colon carcinoma = experiment: Tumor growth in CT26-injected Balb/c mice; format: in vivo; conditions: FIGS. 9A and 9B
Procedure: CT26, EL4 were maintained at 37° C. in a humidified 5% CO2 atmosphere in RPMA1640 medium supplemented with 20% (vol/vol) heat-inactivated fetal bovine serum. For animal experiments, the cells were passaged two to five times after re-growth from frozen stocks. Log phase CT26 cells were detached from tissue culture flasks with 0.25% trypsin and 0.03% EDTA. CT26 and EL4 were washed and resuspended in PBS immediately before injection.
In order to assess the antitumor effect of immuno-modulating peptide, Trp-Arg-Tyr-Met-Val-D-Met-CONH2, (WRYMVm; (SEQ ID NO: 4)), CT26, colon carcinoma was tested in Balb/c mice model. Tumor mass was measured in size every two days after 6 days from tumor cell inoculation.
To find the effective tumor-suppressing dose of WRYMVm, 0.1 μg/mouse, 0.25 μg/mouse, and 1 μg/mouse of WRYMVm were administered to CT26/Balb/c model. […] A similar phenomenon is easily found in chemotactic migration of leukocytes. In view of the fact that FPRL1, which is a target receptor for WRYMVm, is related to the chemotactic migration event, it is concluded that WRYMVm-induced antitumor effect might be derived from leukocyte infiltration event. Therefore, it is quite necessary to reveal the direct relationship between the WRYMVm-induced antitumor effect and the leukocyte infiltration event.

With CSCC[C@H](NC(=O)CNC(=O)[C@H](CCCCN)NC(=O)[C@@H](N)Cc1c[nH]c2ccccc12)C(=O)N[C@H](C(=O)N[C@H](CCSC)C(N)=O)C(C)C [WKGMVm-NH2, Trp-Lys-Gly-Met-Val-D-Met-NH2] (H-WKGMV[dM]-NH2; N-terminus assumed) the “[Ca^2+]i increasing activity” value (FPRL1 [1]) was “showed [Ca^2+]i-increasing activity in FPRL1 cells, with a little lower affinity to FPRL1”.

CSCC[C@H](NC(=O)[C@H](Cc1ccc(O)cc1)NC(=O)[C@H](CCCCN)NC(=O)[C@@H](N)Cc1c[nH]c2ccccc12)C(=O)N[C@H](C(=O)N[C@H](CCSC)C(N)=O)C(C)C [WKYMVm-NH2, Trp-Lys-Tyr-Met-Val-D-Met-NH2, reference compound] was tested, and the “concentration showing maximal [Ca^2+]i increase activity” value (FPRL1 [1]; data not shown) was 10 nM, the “EC50 (nM), intracellular calcium increase” value (FPRL1 [1]; fura-2 loaded) was “inactive” and the “Akt phosphorylation” value (FPRL1 [2]) was “stimulated Akt phosphorylation”.

In the case of CSCC[C@H](NC(=O)[C@H](CCCNC(=N)N)NC(=O)[C@H](CCCCN)NC(=O)[C@@H](N)Cc1c[nH]c2ccccc12)C(=O)N[C@H](C(=O)N[C@H](CCSC)C(N)=O)C(C)C [WKRMVm-NH2, Trp-Lys-Arg-Met-Val-D-Met-NH2] (H-WKRMV[dM]-NH2; N-terminus assumed), the “tumor growth in CT26-injected mice (figure legend)” value (CT26, colon carcinoma) is reported as “attenuates tumor growth”.
